Laboratory results: US12214017B2, “GLP-1 compositions and uses thereof” (Novo Nordisk A/S, priority 2017, dated 2025)

Experiment: Assay (III): purity of liraglutide by HPLC (chemical stability)
Type: physicochemical
Conditions: composition without phenol, compared with phenol-containing compositions
Method: Assay (III): Determination of Purity of Liraglutide
Determination of purity was performed using high performance liquid chromatography (HPLC) using a Waters XTerra™ MS C18 column with a gradient elution of two mobile phases, where one mobile phase was an aqueous ammonium phosphate buffer (pH 8)/acetonitrile mixture and the other mobile phase was acetonitrile in water. Detection was performed at 215 nm.
The results in Table 5 were obtained as follows: Compositions comprising liraglutide were tested. The tested compositions contained liraglutide (as specified in Table 4), mannitol (36.9 mg/ml), disodium hydrogen phosphate (1.42 mg/ml), and optionally phenol (as specified in Table 4), at pH 7.4 in an aqueous solution. These compositions were prepared as described herein in the section General Methods of Preparation. Chemical stability as expressed by purity was determined by Assay (III) described herein at start of the experiment and after storage at 25° C. or at 37° C.

## CCCCCCCCCCCCCCCC(=O)N[C@@H](CCC(=O)NCCCC[C@H](NC(=O)[C@H](C)NC(=O)[C@H](C)NC(=O)[C@H](CCC(N)=O)NC(=O)CNC(=O)[C@H](CCC(=O)O)NC(=O)[C@H](CC(C)C)NC(=O)[C@H](Cc1ccc(O)cc1)NC(=O)[C@H](CO)NC(=O)[C@H](CO)NC(=O)[C@@H](NC(=O)[C@H](CC(=O)O)NC(=O)[C@H](CO)NC(=O)[C@@H](NC(=O)[C@H](Cc1ccccc1)NC(=O)[C@@H](NC(=O)CNC(=O)[C@H](CCC(=O)O)NC(=O)[C@H](C)NC(=O)[C@@H](N)Cc1cnc[nH]1)[C@@H](C)O)[C@@H](C)O)C(C)C)C(=O)N[C@@H](CCC(=O)O)C(=O)N[C@@H](Cc1ccccc1)C(=O)N[C@H](C(=O)N[C@@H](C)C(=O)N[C@@H](Cc1c[nH]c2ccccc12)C(=O)N[C@@H](CC(C)C)C(=O)N[C@H](C(=O)N[C@@H](CCCNC(=N)N)C(=O)NCC(=O)N[C@@H](CCCNC(=N)N)C(=O)NCC(=O)O)C(C)C)[C@@H](C)CC)C(=O)O [liraglutide]
  Chemical stability of liraglutide (in words): less chemically stable
